Earlier results on one molecule are cited in US20100104646A1, “NANOPARTICLE COMPOSITION FOR PREVENTION OF HAIR LOSS AND PROMOTION OF HAIR GROWTH” (priority 2006, published 2010).

Structures are written as SMILES.

This data set deals with hair loss. The conditions noted are these: clinical studies.

For `CC(C)(C)NC(=O)[C@H]1CC[C@H]2[C@@H]3CC[C@H]4NC(=O)C=C[C@]4(C)[C@H]3CC[C@]12C` [Propecia], the “participants taking the drug in whom hair loss was prevented” value is 68%. Further, the “participants who enjoyed hair regrowth” value (participants taking the drug) was 66%.
